Reference: US11819491B2, “Dilutable formulations of cannabinoids and processes for their preparation” (Yissum Research Development Company of the Hebrew …, priority 2016, dated 2023)

Experiment: Stability of CBD in simulated gastric fluid (SGF)
Type: physicochemical
Settings: 37° C.
Description: A medium of stimulating gastric fluid (SGF) was prepared by dissolving sodium chloride (0.2 w/v %) and hydrochloric acid (0.1M) in DDW, and incubated at 37° C.
For MeOH solution sodium dodecyl sulfate (1 w/v %) was added to the SGF. 500 ml of SGF mediums was contained in an appropriate Erlenmeyer flask. At time 0-1 ml of each CBD stock solution was added to the SGF. The mixture was vigorously shaken at a water bath warmed to 37° C. and immediately 1 ml of the solution was sampled and replaced with an equal volume of preheated SGF medium. Similarly, same volume was sampled at 5, 10, 15, 20, 30, 45, 60, 75, 90, 120, 150 and 180 minutes. Each 1 mL sample was immediately neutralized to a pH of 7 to 9, with 980 μL of 0.1M sodium hydroxide solution and 3 ml MeOH, and pH levels were tested. All samples were kept at 4° C. until HPLC analysis.
For MeOH solution and AX1 system additional samples were taken every 30 min and injected directly into the HPLC without further treatment. […] The measured CBD concentration was divided to the initial concentration (C/C0) at each time point.
In comparison, the CBD profile in SGF with a commercial product (‘RSHO’™—containing CBD dissolved in vegetable oil) and CBD dissolved in pure olive oil were evaluated.

Which “Start of CBD degradation” value does the source give for C=C(C)[C@@H]1CCC(C)=C[C@H]1c1c(O)cc(CCCCC)cc1O [CBD in MeOH, cannabidiol] here?
Its value is 5 min.

And the CBD left (after 2 hours)?
Its CBD left is “less than 4%”.

And the “CBD degradation in SGF (in words)” value (up to 180 min)?
The value was “significant degradation over time”.

What about the CBD decomposed (within 30 min) of the same molecule?
Its CBD decomposed is 68%.
